Measured values from paper PMC8459971, “Evaluation of the hepatotoxicity of the novel GPR40 (FFAR1) agonist CPL207280 in the rat and monkey” (PLoS ONE, 2021).
Several values for one entry are separate records, joined by “and”; a condition that tells them apart may be missing. Equal entries are not always repeated.

Tests used:
[1] = Stability in microsomes, dog; type: in vitro ADME; details: for average DEG [%]: dog microsomes, with cofactors
Procedure: (§1) The final incubation volume was 500 μL. Two control compounds (verapamil and donepezil) were included for each microsomal species, along with the appropriate vehicle control. The reactions were terminated by transferring 50 μL of incubate to 100 μL methanol containing an internal standard (metoprolol) at appropriate time points (0, 10, 20, 40, 60, and 120 min for the test compound and 0, 5, 10, 20, 40, and 60 min for the control compounds). The termination plates were centrifuged at 4000 x g at 4°C for 30 min to precipitate the protein. The supernatants were then collected for analysis, and LC-MS/MS was used for detection purposes. The system consisted of an Acquity™ Binary Solvent Manager, Acquity™ 4-position heated column manager, 2777 Ultra High Pressure Autosampler, and a Xevo-TQ MS triple quadrupole mass spectrometer (Waters Ltd., Herts, UK). This process was carried out twice.

[2] = molecular target: T1, NTCP (Homo sapiens, UniProt Q14973); assay: Uptake transporter inhibition assay, NTCP; type: cell-based; details: for Accumulation (counts per minute; CPM) HEK293-NTCP / Accumulation (counts per minute; CPM) HEK293FT-MOCK: NTCP
T1 construct: expressed in transfected cells; host or cells: HEK cells
T1 sequence (Q14973 1-349): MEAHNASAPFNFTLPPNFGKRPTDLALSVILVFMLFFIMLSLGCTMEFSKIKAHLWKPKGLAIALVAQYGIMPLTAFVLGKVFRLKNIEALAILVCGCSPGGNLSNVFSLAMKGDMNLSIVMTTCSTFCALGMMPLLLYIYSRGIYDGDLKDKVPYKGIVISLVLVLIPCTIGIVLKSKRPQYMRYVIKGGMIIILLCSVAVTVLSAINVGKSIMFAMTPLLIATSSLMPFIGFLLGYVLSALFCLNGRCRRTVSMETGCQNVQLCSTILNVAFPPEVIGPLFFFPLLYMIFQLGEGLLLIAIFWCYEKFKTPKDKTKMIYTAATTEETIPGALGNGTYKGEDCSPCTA
Procedure: For the uptake transporter inhibition assay, cells were washed twice with 100 μL of the appropriate buffer (HK, pH 7.4) for OATP1B1, followed by HBSS (pH 7.4) for (NTCP, OAT1, OAT2v1, OATP1A2, and OATP1B3). Uptake experiments were carried out at 37 ± 1°C in 50 μL of the respective buffer containing the probe substrate and the compound or solvent.

[3] = test system: HepG2 cells; assay: Respiration in hepatocytes (Seahorse XF Mito stress test); type: cell-based, human
[4] = molecular target: MRP3 (Homo sapiens, UniProt O15438); assay: Vesicular transport inhibition assay, MRP3; details: for Accumulation (counts per minute; CPM) with AMP / Accumulation (counts per minute; CPM) with ATP: MRP3;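 note: membrane vesicles with radiolabelled probe substrate and 2 mM glutathione, 4 mM ATP versus AMP background control, vesicle-trapped substrate quantified by liquid scintillation counting after filtration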;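 for Accumulation (counts per minute; CPM) with AMP: ATP 4 mM vs AMP background separates transporter uptake from diffusion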;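 for Accumulation (counts per minute; CPM) with ATP: ATP 4 mM vs AMP background separates transporter uptake from diffusion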
Chain of MRP3 (O15438 whole entry, the tested form may be a part): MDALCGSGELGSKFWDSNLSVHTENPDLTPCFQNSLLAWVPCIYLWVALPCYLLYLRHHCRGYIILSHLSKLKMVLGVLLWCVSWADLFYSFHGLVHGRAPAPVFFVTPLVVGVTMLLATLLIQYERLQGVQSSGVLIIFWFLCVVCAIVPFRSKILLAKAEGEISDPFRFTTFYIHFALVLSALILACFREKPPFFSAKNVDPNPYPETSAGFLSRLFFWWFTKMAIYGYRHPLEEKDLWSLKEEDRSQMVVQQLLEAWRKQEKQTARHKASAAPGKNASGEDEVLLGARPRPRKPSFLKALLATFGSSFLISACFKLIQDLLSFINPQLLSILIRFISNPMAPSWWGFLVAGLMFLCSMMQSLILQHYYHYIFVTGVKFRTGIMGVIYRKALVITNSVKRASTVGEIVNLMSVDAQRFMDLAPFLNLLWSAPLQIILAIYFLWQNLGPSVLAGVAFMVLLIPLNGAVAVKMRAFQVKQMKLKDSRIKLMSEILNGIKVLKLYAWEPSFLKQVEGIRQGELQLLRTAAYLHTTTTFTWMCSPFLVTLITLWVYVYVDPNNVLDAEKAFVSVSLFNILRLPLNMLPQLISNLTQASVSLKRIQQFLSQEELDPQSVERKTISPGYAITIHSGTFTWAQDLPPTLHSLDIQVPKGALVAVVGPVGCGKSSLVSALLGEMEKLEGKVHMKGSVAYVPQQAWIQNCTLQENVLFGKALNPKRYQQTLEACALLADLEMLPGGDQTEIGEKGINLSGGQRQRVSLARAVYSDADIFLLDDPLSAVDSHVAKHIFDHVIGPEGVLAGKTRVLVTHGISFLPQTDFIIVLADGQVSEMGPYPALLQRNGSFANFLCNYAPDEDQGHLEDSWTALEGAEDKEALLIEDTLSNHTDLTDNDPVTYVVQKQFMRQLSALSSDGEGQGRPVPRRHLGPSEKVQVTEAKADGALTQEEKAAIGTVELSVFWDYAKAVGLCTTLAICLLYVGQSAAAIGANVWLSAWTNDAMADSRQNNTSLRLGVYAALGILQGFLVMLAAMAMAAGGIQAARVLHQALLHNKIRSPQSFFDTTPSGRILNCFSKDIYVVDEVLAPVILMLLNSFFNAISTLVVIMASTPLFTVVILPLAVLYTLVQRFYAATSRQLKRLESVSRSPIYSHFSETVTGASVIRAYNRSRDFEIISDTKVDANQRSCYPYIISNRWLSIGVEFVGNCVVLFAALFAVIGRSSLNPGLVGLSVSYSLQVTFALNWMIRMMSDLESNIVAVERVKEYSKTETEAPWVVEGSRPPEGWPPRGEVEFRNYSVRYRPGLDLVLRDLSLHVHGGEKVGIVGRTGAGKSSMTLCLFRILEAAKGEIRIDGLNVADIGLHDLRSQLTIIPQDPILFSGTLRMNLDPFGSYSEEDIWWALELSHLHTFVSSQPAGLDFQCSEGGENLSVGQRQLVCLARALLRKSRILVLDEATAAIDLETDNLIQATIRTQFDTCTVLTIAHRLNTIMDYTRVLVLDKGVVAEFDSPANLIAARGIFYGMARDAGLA
Procedure: In the vesicular transport inhibition assay (for BSEP, MRP) compounds were incubated with membrane vesicle preparations and the probe substrate. Incubations were carried out in the presence of 4 mM ATP or AMP to distinguish between transporter-mediated uptake and passive diffusion into the vesicles. For MRP2 and MRP3, reactions were carried out in the presence of 2 mM glutathione. Compounds were added to the reaction mixture in 0.75 μL of solvent (1% of the final incubation volume). […] Reactions were initiated by the addition of 25 μL of 12 mM MgATP (or 12 mM AMP in assay buffer as a background control) and preincubated separately. Reactions were quenched by the addition of 200 μL of ice-cold washing buffer and immediate filtration via glass fiber filters mounted on a 96-well plate (filter plate). The filters were washed (5 × 200 μL of ice-cold washing buffer), dried, and the amount of substrate inside the filtered vesicles was determined by liquid scintillation counting.

[5] = Stability in microsomes, monkey; type: in vitro ADME; details: for average DEG [%]: monkey microsomes, with cofactors
Procedure: as §1

[6] = molecular target: T2, OATP1B3 (Homo sapiens, UniProt Q9NPD5); assay: Uptake transporter inhibition assay, OATP1B3
T2 sequence (Q9NPD5 1-702): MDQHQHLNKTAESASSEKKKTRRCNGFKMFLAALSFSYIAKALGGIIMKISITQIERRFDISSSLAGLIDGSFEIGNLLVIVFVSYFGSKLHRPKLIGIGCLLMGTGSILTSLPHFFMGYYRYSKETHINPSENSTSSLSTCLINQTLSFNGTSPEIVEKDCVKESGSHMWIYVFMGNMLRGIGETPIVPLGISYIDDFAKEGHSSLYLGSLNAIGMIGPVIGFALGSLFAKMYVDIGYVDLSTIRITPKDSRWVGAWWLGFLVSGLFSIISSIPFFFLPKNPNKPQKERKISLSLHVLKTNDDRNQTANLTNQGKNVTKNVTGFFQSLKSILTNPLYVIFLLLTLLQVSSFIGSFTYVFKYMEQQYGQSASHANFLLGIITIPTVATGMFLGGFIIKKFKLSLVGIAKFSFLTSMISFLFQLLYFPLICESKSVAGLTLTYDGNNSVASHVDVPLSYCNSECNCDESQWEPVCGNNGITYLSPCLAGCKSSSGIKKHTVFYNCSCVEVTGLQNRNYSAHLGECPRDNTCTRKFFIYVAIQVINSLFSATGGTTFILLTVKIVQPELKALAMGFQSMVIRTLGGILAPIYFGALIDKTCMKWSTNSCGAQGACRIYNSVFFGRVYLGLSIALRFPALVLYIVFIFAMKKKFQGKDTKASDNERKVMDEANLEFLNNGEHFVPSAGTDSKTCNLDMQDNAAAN
Procedure: For the uptake transporter inhibition assay, cells were washed twice with 100 μL of the appropriate buffer (HK, pH 7.4) for OATP1B1, followed by HBSS (pH 7.4) for (NTCP, OAT1, OAT2v1, OATP1A2, and OATP1B3). Uptake experiments were carried out at 37 ± 1°C in 50 μL of the respective buffer containing the probe substrate and the compound or solvent. […] After the experiment, cells were washed twice with 100 μL of cold appropriate buffer and lysed with 50 μL of 0.1 M NaOH. Radiolabeled probe substrate transport was determined by measuring an aliquot (35 μL) from each well for liquid scintillation counting.

[7] = Dog (Beagle) microsomes, mean n = 2
[8] = Monkey (Cynomolgus) microsomes, mean n = 2

Cc1cc(OCCCS(C)(=O)=O)cc(C)c1-c1cccc(COc2ccc3c(c2)OC[C@H]3CC(=O)O)c1 [TAK-875, fasiglifam, reference compound]
half-life at 3 μM [1, 7]: 1.87 h
microsomal CLint at 3 μM [1, 7]: 12.4 µL/min/mg
average DEG [%] ([1]; 0 min): 100.0%
average DEG [%] ([1]; 20 min): 82.2%
average DEG [%] ([1]; 40 min): 77.1%
average DEG [%] ([1]; 60 min): 67.7%
Accumulation (counts per minute; CPM) HEK293-NTCP ([2]; conc 0.10 µM): 4946 CPM and 5522 CPM
Accumulation (counts per minute; CPM) HEK293FT-MOCK ([2]; conc 0.10 µM): 31 CPM and 28 CPM
Accumulation (counts per minute; CPM) HEK293-NTCP ([2]; conc 0.30 µM): 4754 CPM and 4976 CPM
Accumulation (counts per minute; CPM) HEK293FT-MOCK ([2]; conc 0.30 µM): 28 CPM and 36 CPM
Accumulation (counts per minute; CPM) HEK293-NTCP ([2]; conc 1.00 µM): 4452 CPM and 4849 CPM
Accumulation (counts per minute; CPM) HEK293FT-MOCK ([2]; conc 1.00 µM): 23 CPM and 31 CPM
Accumulation (counts per minute; CPM) HEK293-NTCP ([2]; conc 3.00 µM): 4304 CPM and 4641 CPM
Accumulation (counts per minute; CPM) HEK293FT-MOCK ([2]; conc 3.00 µM): 25 CPM and 22 CPM
Accumulation (counts per minute; CPM) HEK293-NTCP ([2]; conc 10.00 µM): 3509 CPM and 4053 CPM
Accumulation (counts per minute; CPM) HEK293FT-MOCK ([2]; conc 10.00 µM): 28 CPM and 26 CPM
Accumulation (counts per minute; CPM) HEK293-NTCP ([2]; conc 30.00 µM): 2661 CPM and 2656 CPM
Accumulation (counts per minute; CPM) HEK293FT-MOCK ([2]; conc 30.00 µM): 25 CPM and 30 CPM
Accumulation (counts per minute; CPM) HEK293-NTCP ([2]; conc 100.00 µM): 1608 CPM and 1569 CPM
Accumulation (counts per minute; CPM) HEK293FT-MOCK ([2]; conc 100.00 µM): 25 CPM and 33 CPM
IC50 ([2]; transformed HEK cells, up to 300μM, n = 2): 53.1 µM
oxygen consumption rate, mito stress tracing ([3]; Fig2 B, HepG2, 0,3 uM, 61.3509 min): 201.605
ECAR (Extracellular Acidification Rate) ([3]; HepG2, 30 uM, replicates): 1.734
effect on maximal respiratory capacity after FCCP ([3]; HepG2, Seahorse XF): dose-dependent reduction in maximal respiratory capacity
EC50 ([3]; Homo sapiens, HepG2, Seahorse XF, read-out: EC50 of acidification of media (ECAR)): 46 µM
IC50 [4]: 31.8 µM
Accumulation (counts per minute; CPM) with AMP ([4]; conc 0.07 µM): 151 CPM and 146 CPM
Accumulation (counts per minute; CPM) with ATP ([4]; conc 0.07 µM): 3266 CPM and 3317 CPM
Accumulation (counts per minute; CPM) with AMP ([4]; conc 0.21 µM): 149 CPM and 132 CPM
Accumulation (counts per minute; CPM) with ATP ([4]; conc 0.21 µM): 3233 CPM and 3776 CPM
Accumulation (counts per minute; CPM) with AMP ([4]; conc 0.62 µM): 197 CPM and 169 CPM
Accumulation (counts per minute; CPM) with ATP ([4]; conc 0.62 µM): 3398 CPM and 3538 CPM
Accumulation (counts per minute; CPM) with AMP ([4]; conc 16.67 µM): 238 CPM and 245 CPM
Accumulation (counts per minute; CPM) with ATP ([4]; conc 16.67 µM): 2701 CPM and 2568 CPM
Accumulation (counts per minute; CPM) with AMP ([4]; conc 50.00 µM): 232 CPM and 210 CPM
Accumulation (counts per minute; CPM) with ATP ([4]; conc 50.00 µM): 1204 CPM and 1302 CPM
half-life at 3 μM [5, 8]: 0.5 h
microsomal CLint at 3 μM [5, 8]: 39.2 µL/min/mg
average DEG [%] ([5]; 0 min): 100.0%
average DEG [%] ([5]; 20 min): 61.2%
average DEG [%] ([5]; 40 min): 37.2%
average DEG [%] ([5]; 60 min): 32.0%
IC50 [6]: 3.44 µM
